Experimental data reported in patent publication US8530650B2, “2, 5-diamino-substituted pyrido [4, 3-D] pyrimidines as autotaxin inhibitors against cancer” (MERCK PATENT GmbH, priority 2008, dated 2013).

Each compound was assayed against T1, recombinant autotaxin (Homo sapiens, UniProt Q13822) (assay: Autotaxin assay (Amplex Red, LPC substrate)). Conditions: 75 μM LPC, Amplex Red fluorescence, ten 1:3 dilutions starting at 30 μM.
T1 construct: made in house; host or cells: Hi5 insect cells (baculovirus)
Assay type: biochemical
Method in brief: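 Baculovirus (Hi5)-expressed autotaxin (16 ng) was preincubated with compound 30 min at 22° C., then reacted with 75 μM final egg LPC for 90 min at 37° C.; choline released was coupled via choline oxidase/peroxidase to Amplex Red, fluorescence read kinetically (ex 485/em 612 nm). IC50 from 10-point 1:3 dilutions from 30 μM, duplicates, normalized to 500 μM C14 LPA as 0%.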
In the case of `COc1ccccc1CNc1ncc2c(Nc3ccc(F)cc3F)nccc2n1` [Compound 37, N5-(2,4-Difluoro-phenyl)-N2-(2-methoxy-benzyl)-pyrido[4,3-d]pyrimidine-2,5-diamine], the IC50 is reported as under 30 µM.
For `COc1ccc(Nc2nccc3nc(NCc4ccccc4OC)ncc23)cc1` [Compound 35, N2-(2-Methoxy-benzyl)-N5-(4-methoxy-phenyl)-pyrido[4,3-d]pyrimidine-2,5-diamine], the IC50 was under 30 µM.
`COc1ccc(Nc2nccc3nc(NCc4ccc(Cl)cc4)ncc23)cc1OC` [Compound 47, N2-(4-Chloro-benzyl)-N5-(3,4-dimethoxy-phenyl)-pyrido[4,3-d]pyrimidine-2,5-diamine] showed an IC50 of under 30 µM.
`COc1ccc(CNc2ncc3c(Nc4ccc(F)cc4F)nccc3n2)cc1` [Compound 52, N5-(2,4-Difluoro-phenyl)-N2-(4-methoxy-benzyl)-pyrido[4,3-d]pyrimidine-2,5-diamine] showed an IC50 of under 30 µM.
Work on `CN(C)C(=O)C1CCN(c2nccc3nc(NCc4ccccc4Cl)ncc23)CC1` [Compound 140, 1-[2-(2-Chloro-benzylamino)-pyrido[4,3-d]pyrimidin-5-yl]-piperidine-4-carboxylic acid dimethylamide] yielded an IC50 of under 30 µM.
`Fc1ccc(CNc2ncc3c(Nc4ccc5c(c4)OCO5)nccc3n2)cc1` [Compound 26, N5-Benzo[1,3]dioxol-5-yl-N2-(4-fluoro-benzyl)-pyrido[4,3-d]pyrimidine-2,5-diamine] gave an IC50 of under 30 µM.
`CN1CCN(C(=O)C2CCCN(c3nccc4nc(NCc5ccccc5Cl)ncc34)C2)CC1` (stereo not shown) [Compound 104, {1-[2-(2-Chloro-benzylamino)-pyrido[4,3-d]pyrimidin-5-yl]-piperidin-3-yl}-(4-methyl-piperazin-1-yl)-methanone] was tested, and the IC50 was under 30 µM.
`Clc1ccccc1CNc1ncc2c(NCCCN3CCCC3)nccc2n1` [Compound 17, N2-(2-Chloro-benzyl)-N5-(3-pyrrolidin-1-yl-propyl)-pyrido[4,3-d]pyrimidine-2,5-diamine] showed an IC50 of under 30 µM.
With `COc1ccc(Nc2nccc3nc(NCc4ccccc4)ncc23)cc1` [Compound 3, N2-Benzyl-N5-(4-methoxy-phenyl)-pyrido[4,3-d]pyrimidine-2,5-diamine] the IC50 was under 30 µM.
`Fc1ccccc1Nc1nccc2nc(NCc3ccccc3Cl)ncc12` [Compound 100, N2-(2-Chloro-benzyl)-N5-(2-fluoro-phenyl)-pyrido[4,3-d]pyrimidine-2,5-diamine] showed an IC50 of under 10 µM.
